This is an account of results in patent US20120121591A1 (priority 2009, published 2012).

Holding throughout (format): cell-based
In assay [1] the test system is IFN-g secretion from T cells in human whole blood. Conditions: read-out: WB (IFNg) IC50 (nM, Avg).
In assay [2] the test system is IL-2 secretion from T cells in human whole blood. The conditions noted are these: read-out: WB (IL-2) IC50 (nM, Avg).
The target of another assay is hKv1.3 (Homo sapiens, UniProt P22001). Description: cell-based. Conditions: Kv1.3 (IWQ) IC50 (nM, Avg).
hKv1.3, sequence (P22001 whole entry): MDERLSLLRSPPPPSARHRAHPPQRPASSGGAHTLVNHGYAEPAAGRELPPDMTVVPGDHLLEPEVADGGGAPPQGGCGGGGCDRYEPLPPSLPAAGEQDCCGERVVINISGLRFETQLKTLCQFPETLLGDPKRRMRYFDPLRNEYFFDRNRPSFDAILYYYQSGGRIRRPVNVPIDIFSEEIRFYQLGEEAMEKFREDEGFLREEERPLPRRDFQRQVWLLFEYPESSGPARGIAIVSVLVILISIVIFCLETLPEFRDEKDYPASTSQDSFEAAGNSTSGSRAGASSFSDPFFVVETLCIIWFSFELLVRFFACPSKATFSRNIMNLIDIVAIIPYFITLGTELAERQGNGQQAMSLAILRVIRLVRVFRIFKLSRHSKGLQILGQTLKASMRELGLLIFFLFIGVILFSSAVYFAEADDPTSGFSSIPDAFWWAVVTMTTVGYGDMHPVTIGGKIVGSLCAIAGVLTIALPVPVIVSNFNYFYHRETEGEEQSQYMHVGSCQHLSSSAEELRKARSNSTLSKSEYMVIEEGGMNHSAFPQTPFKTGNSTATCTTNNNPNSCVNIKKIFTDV

For the compound `CC[C@H](C)[C@@H]1NC(=O)[C@@H](NC(=O)[C@H](CO)NC(=O)[C@@H](N)CCCNC(=N)N)CSSC[C@@H](C(=O)O)NC(=O)[C@H]([C@@H](C)O)NC(=O)CNC(=O)[C@@H]2CSSC[C@@H]3NC(=O)[C@H](CCC(N)=O)NC(=O)[C@H](Cc4ccccc4)NC(=O)[C@H](C)NC(=O)[C@H]([C@@H](C)O)NC(=O)[C@H](CSSC[C@H](NC(=O)[C@H](Cc4ccccc4)NC(=O)[C@H](CO)NC(=O)[C@H](CC(C)C)NC(=O)[C@H](CCCNC(=N)N)NC(=O)[C@H](Cc4ccc(O)cc4)NC(=O)[C@H](CCCCN)NC(=O)[C@H](CCSC)NC(=O)[C@H](CO)NC(=O)[C@H](Cc4c[nH]cn4)NC(=O)[C@H](CCCCN)NC3=O)C(=O)N[C@@H](CCCNC(=N)N)C(=O)N[C@@H](CCCCN)C(=O)N[C@@H]([C@@H](C)O)C(=O)N2)NC(=O)[C@H](CCCNC(=N)N)NC(=O)[C@H](CCCCN)NC(=O)[C@H](CCCCN)NC(=O)[C@@H]2CCCN2C(=O)[C@H]([C@@H](C)CC)NC(=O)[C@H]([C@@H](C)O)NC(=O)[C@H](CC(=O)O)NC1=O` [[Lys10]ShK], the IC50 worked out at 0.082 nM in assay [1], 0.052 nM in assay [2] and 0.174 nM against hKv1.3.
For `CC[C@H](C)[C@@H]1NC(=O)[C@@H](NC(=O)[C@H](CO)NC(=O)[C@@H](N)CCCNC(=N)N)CSSC[C@@H](C(=O)O)NC(=O)[C@H]([C@@H](C)O)NC(=O)CNC(=O)[C@@H]2CSSC[C@@H]3NC(=O)[C@H](CCC(N)=O)NC(=O)[C@H](Cc4ccccc4)NC(=O)[C@H](C)NC(=O)[C@H](CCCCN)NC(=O)[C@H](CSSC[C@H](NC(=O)[C@H](Cc4ccccc4)NC(=O)[C@H](CO)NC(=O)[C@H](CC(C)C)NC(=O)[C@H](CCCNC(=N)N)NC(=O)[C@H](Cc4ccc(O)cc4)NC(=O)[C@H](CCCCN)NC(=O)[C@H](CCSC)NC(=O)[C@H](CO)NC(=O)[C@H](Cc4c[nH]cn4)NC(=O)[C@H](CCCCN)NC3=O)C(=O)N[C@@H](CCCNC(=N)N)C(=O)N[C@@H](CCCCN)C(=O)N[C@@H]([C@@H](C)O)C(=O)N2)NC(=O)[C@H](CCCNC(=N)N)NC(=O)[C@H](CO)NC(=O)[C@H](CCCCN)NC(=O)[C@@H]2CCCN2C(=O)[C@H]([C@@H](C)CC)NC(=O)[C@H]([C@@H](C)O)NC(=O)[C@H](CC(=O)O)NC1=O` [[Lys13]ShK] the same measures were 0.363 nM, 0.257 nM and 0.157 nM.
Consider `CC[C@H](C)[C@@H]1NC(=O)[C@@H](NC(=O)[C@H](CO)NC(=O)[C@@H](N)CCCNC(=N)N)CSSC[C@@H](C(=O)O)NC(=O)[C@H]([C@@H](C)O)NC(=O)CNC(=O)[C@@H]2CSSC[C@@H]3NC(=O)[C@H](CCC(N)=O)NC(=O)[C@H](Cc4ccccc4)NC(=O)[C@H](CCCCN)NC(=O)[C@H]([C@@H](C)O)NC(=O)[C@H](CSSC[C@H](NC(=O)[C@H](Cc4ccccc4)NC(=O)[C@H](CO)NC(=O)[C@H](CC(C)C)NC(=O)[C@H](CCCNC(=N)N)NC(=O)[C@H](Cc4ccc(O)cc4)NC(=O)[C@H](CCCCN)NC(=O)[C@H](CCSC)NC(=O)[C@H](CO)NC(=O)[C@H](Cc4c[nH]cn4)NC(=O)[C@H](CCCCN)NC3=O)C(=O)N[C@@H](CCCNC(=N)N)C(=O)N[C@@H](CCCCN)C(=O)N[C@@H]([C@@H](C)O)C(=O)N2)NC(=O)[C@H](CCCNC(=N)N)NC(=O)[C@H](CO)NC(=O)[C@H](CCCCN)NC(=O)[C@@H]2CCCN2C(=O)[C@H]([C@@H](C)CC)NC(=O)[C@H]([C@@H](C)O)NC(=O)[C@H](CC(=O)O)NC1=O` [[Lys14]ShK], for which the IC50 in assay [1] came out at 0.202 nM; in assay [2], 0.075 nM; against hKv1.3, 0.073 nM.
For `CC[C@H](C)[C@@H]1NC(=O)[C@@H](NC(=O)[C@H](CO)NC(=O)[C@@H](N)CCCNC(=N)N)CSSC[C@@H](C(=O)O)NC(=O)[C@H]([C@@H](C)O)NC(=O)CNC(=O)[C@@H]2CSSC[C@@H]3NC(=O)[C@H](CCC(N)=O)NC(=O)[C@H](CCCCN)NC(=O)[C@H](C)NC(=O)[C@H]([C@@H](C)O)NC(=O)[C@H](CSSC[C@H](NC(=O)[C@H](Cc4ccccc4)NC(=O)[C@H](CO)NC(=O)[C@H](CC(C)C)NC(=O)[C@H](CCCNC(=N)N)NC(=O)[C@H](Cc4ccc(O)cc4)NC(=O)[C@H](CCCCN)NC(=O)[C@H](CCSC)NC(=O)[C@H](CO)NC(=O)[C@H](Cc4c[nH]cn4)NC(=O)[C@H](CCCCN)NC3=O)C(=O)N[C@@H](CCCNC(=N)N)C(=O)N[C@@H](CCCCN)C(=O)N[C@@H]([C@@H](C)O)C(=O)N2)NC(=O)[C@H](CCCNC(=N)N)NC(=O)[C@H](CO)NC(=O)[C@H](CCCCN)NC(=O)[C@@H]2CCCN2C(=O)[C@H]([C@@H](C)CC)NC(=O)[C@H]([C@@H](C)O)NC(=O)[C@H](CC(=O)O)NC1=O` [[Lys15]ShK] the same measures were 0.991 nM, 0.465 nM and 0.295 nM.
For `CC[C@H](C)[C@@H]1NC(=O)[C@@H](NC(=O)[C@H](CO)NC(=O)[C@@H](N)CCCNC(=N)N)CSSC[C@@H](C(N)=O)NC(=O)[C@H]([C@@H](C)O)NC(=O)CNC(=O)[C@@H]2CSSC[C@@H]3NC(=O)[C@H](CCCCN)NC(=O)[C@H](Cc4ccccc4)NC(=O)[C@H](C)NC(=O)[C@H]([C@@H](C)O)NC(=O)[C@H](CSSC[C@H](NC(=O)[C@H](Cc4cccc5ccccc45)NC(=O)[C@H](CO)NC(=O)[C@H](CC(C)C)NC(=O)[C@H](CCCNC(=N)N)NC(=O)[C@H](Cc4ccc(O)cc4)NC(=O)[C@H](CCCCN)NC(=O)[C@H](CCSC)NC(=O)[C@H](CO)NC(=O)[C@H](Cc4c[nH]cn4)NC(=O)[C@H](CCCCN)NC3=O)C(=O)N[C@@H](CCCNC(=N)N)C(=O)N[C@@H](CCCCN)C(=O)N[C@@H]([C@@H](C)O)C(=O)N2)NC(=O)[C@H](CCCNC(=N)N)NC(=O)[C@H](CO)NC(=O)[C@H](CCCCN)NC(=O)[C@@H]2CCCN2C(=O)[C@H]([C@@H](C)CC)NC(=O)[C@H]([C@@H](C)O)NC(=O)[C@H](CC(=O)O)NC1=O` [[Lys16,1-Na127]ShK-amide] the same measures were 2.94 nM, 3.95 nM and 0.299 nM.
Taken in the same sequence, the figures for `CC[C@H](C)[C@@H]1NC(=O)[C@@H](NC(=O)[C@H](CO)NC(=O)[C@@H](N)CCCNC(=N)N)CSSC[C@@H](C(=O)O)NC(=O)[C@H]([C@@H](C)O)NC(=O)CNC(=O)[C@@H]2CSSC[C@@H]3NC(=O)[C@H](CCCCN)NC(=O)[C@H](Cc4ccccc4)NC(=O)[C@H](C)NC(=O)[C@H]([C@@H](C)O)NC(=O)[C@H](CSSC[C@H](NC(=O)[C@H](Cc4cccc5ccccc45)NC(=O)[C@H](CO)NC(=O)[C@H](CC(C)C)NC(=O)[C@H](CCCNC(=N)N)NC(=O)[C@H](Cc4ccc(O)cc4)NC(=O)[C@H](CCCCN)NC(=O)[C@H](CCSC)NC(=O)[C@H](CO)NC(=O)[C@H](Cc4c[nH]cn4)NC(=O)[C@H](CCCCN)NC3=O)C(=O)N[C@@H](CCCNC(=N)N)C(=O)N[C@@H](CCCCN)C(=O)N[C@@H]([C@@H](C)O)C(=O)N2)NC(=O)[C@H](CCCNC(=N)N)NC(=O)[C@H](CO)NC(=O)[C@H](CCCCN)NC(=O)[C@@H]2CCCN2C(=O)[C@H]([C@@H](C)CC)NC(=O)[C@H]([C@@H](C)O)NC(=O)[C@H](CC(=O)O)NC1=O` [[Lys16,1-Na127]ShK] were 5.68 nM, 0.924 nM and 0.113 nM.
With `CC[C@H](C)[C@@H]1NC(=O)[C@@H](NC(=O)[C@H](CO)NC(=O)[C@@H](N)CCCNC(=N)N)CSSC[C@@H](C(N)=O)NC(=O)[C@H]([C@@H](C)O)NC(=O)CNC(=O)[C@@H]2CSSC[C@@H]3NC(=O)[C@H](CCCCN)NC(=O)[C@H](Cc4ccccc4)NC(=O)[C@H](C)NC(=O)[C@H]([C@@H](C)O)NC(=O)[C@H](CSSC[C@H](NC(=O)[C@H](Cc4ccccc4)NC(=O)[C@H](Cc4ccc5ccccc5c4)NC(=O)[C@H](CC(C)C)NC(=O)[C@H](CCCNC(=N)N)NC(=O)[C@H](Cc4ccc(O)cc4)NC(=O)[C@H](CCCCN)NC(=O)[C@H](CCSC)NC(=O)[C@H](CO)NC(=O)[C@H](Cc4c[nH]cn4)NC(=O)[C@H](CCCCN)NC3=O)C(=O)N[C@@H](CCCCN)C(=O)N[C@@H](CCCCN)C(=O)N[C@@H]([C@@H](C)O)C(=O)N2)NC(=O)[C@H](CCCNC(=N)N)NC(=O)[C@H](CO)NC(=O)[C@H](CCCCN)NC(=O)[C@@H]2CCCN2C(=O)[C@H]([C@@H](C)CC)NC(=O)[C@H]([C@@H](C)O)NC(=O)[C@H](CC(=O)O)NC1=O` [[Lys16,29;2-Na126]ShK-amide], the figures for the concentration for half-maximal inhibition (IC50) (in assay [1]; in assay [2]; on hKv1.3) were 0.148 nM, 0.222 nM and 0.762 nM, respectively.
For `CCCC[C@@H]1NC(=O)[C@H](CO)NC(=O)[C@H](Cc2c[nH]cn2)NC(=O)[C@H](CCCCN)NC(=O)[C@@H]2CSSC[C@@H]3NC(=O)[C@H]([C@@H](C)O)NC(=O)[C@H](CCCNC(=N)N)NC(=O)[C@H](CCCCN)NC(=O)[C@H](CSSC[C@H](NC(=O)[C@H](CCCNC(=N)N)NC(=O)[C@H](CO)NC(=O)[C@H](CCCCN)NC(=O)[C@@H]4CCCN4C(=O)[C@H]([C@@H](C)CC)NC(=O)[C@H]([C@@H](C)O)NC(=O)[C@H](CC(=O)O)NC(=O)[C@H]([C@@H](C)CC)NC(=O)[C@@H](NC(=O)[C@H](CO)NC(=O)[C@@H](N)CCCNC(=N)N)CSSC[C@@H](C(N)=O)NC(=O)[C@H]([C@@H](C)O)NC(=O)CNC3=O)C(=O)N[C@@H]([C@@H](C)O)C(=O)N[C@@H](C)C(=O)N[C@@H](Cc3ccccc3)C(=O)N[C@@H](CCCCN)C(=O)N2)NC(=O)[C@H](Cc2ccccc2)NC(=O)[C@H](Cc2cccc3ccccc23)NC(=O)[C@H](CC(C)C)NC(=O)[C@H](CCCNC(=N)N)NC(=O)[C@H](Cc2ccc(O)cc2)NC(=O)[C@H](CCCCN)NC1=O` [[Lys16,29; 1-Nal26;Arg30;Nle21]ShK-amide] the same measures were 8.22 nM, 9.44 nM and 2.33 nM.
